Measured values as given in ChEMBL document CHEMBL3792356, “Discovery of molluscicidal and cercaricidal activities of 3-substituted quinazolinone derivatives by a scaffold hopping approach using a pseudo-ring based on the intramolecular hydrogen bond formation” (Eur J Med Chem, 2016).
Values after ≈ are worked out from the molar mass of the structure shown.

How the values were obtained:
[1] = system: Oncomelania hupensis; assay: Molluscicidal activity against Oncomelania hupensis measured after 24 hrs; type: functional; details: for LC50: Oncomelania hupensis, 24 h
[2] = system: Schistosoma japonicum; assay: Cercaricidal activity against Schistosoma japonicum infected in Oncomelania hupensis measured after 120 mins by colour television microscopy; type: functional; details: for LC50: Schistosoma japonicum, 2 h
[3] = Toxicity in tadpole assessed as lethality at 10 ppm measured after 12 hrs; type: organism-based; details: anura, in vivo
[4] = Toxicity in tadpole assessed as lethality at 5 ppm measured after 12 hrs; type: organism-based; details: anura, in vivo
[5] = Toxicity in tadpole assessed as lethality at 2.5 ppm measured after 12 hrs; type: organism-based; details: anura, in vivo
[6] = Toxicity in tadpole assessed as lethality at 1.25 ppm measured after 12 hrs; type: organism-based; details: anura, in vivo
[7] = Toxicity in tadpole assessed as lethality at 0.625 ppm measured after 12 hrs; type: organism-based; details: anura, in vivo
[8] = Toxicity in tadpole assessed as lethality at 0.3125 ppm measured after 12 hrs; type: organism-based; details: anura, in vivo
[9] = Toxicity in tadpole assessed as lethality at 10 ppm measured after 24 hrs; type: organism-based; details: anura, in vivo
[10] = Toxicity in tadpole assessed as lethality at 5 ppm measured after 24 hrs; type: organism-based; details: anura, in vivo
[11] = Toxicity in tadpole assessed as lethality at 2.5 ppm measured after 24 hrs; type: organism-based; details: anura, in vivo
[12] = Toxicity in tadpole assessed as lethality at 1.25 ppm measured after 24 hrs; type: organism-based; details: anura, in vivo
[13] = Toxicity in tadpole assessed as lethality at 0.625 ppm measured after 24 hrs; type: organism-based; details: anura, in vivo
[14] = Toxicity in tadpole assessed as lethality at 0.3125 ppm measured after 24 hrs; type: organism-based; details: anura, in vivo
[15] = Toxicity in tadpole assessed as lethality at 10 ppm measured after 48 hrs; type: organism-based; details: anura, in vivo
[16] = Toxicity in tadpole assessed as lethality at 5 ppm measured after 48 hrs; type: organism-based; details: anura, in vivo
[17] = Toxicity in tadpole assessed as lethality at 2.5 ppm measured after 48 hrs; type: organism-based; details: anura, in vivo
[18] = Toxicity in tadpole assessed as lethality at 1.25 ppm measured after 48 hrs; type: organism-based; details: anura, in vivo
[19] = Toxicity in tadpole assessed as lethality at 0.625 ppm measured after 48 hrs; type: organism-based; details: anura, in vivo
[20] = Toxicity in tadpole assessed as lethality at 0.3125 ppm measured after 48 hrs; type: organism-based; details: anura, in vivo
[21] = Toxicity in tadpole assessed as lethality at 10 ppm measured after 72 hrs; type: organism-based; details: anura, in vivo
[22] = Toxicity in tadpole assessed as lethality at 5 ppm measured after 72 hrs; type: organism-based; details: anura, in vivo
[23] = Toxicity in tadpole assessed as lethality at 2.5 ppm measured after 72 hrs; type: organism-based; details: anura, in vivo
[24] = Toxicity in tadpole assessed as lethality at 1.25 ppm measured after 72 hrs; type: organism-based; details: anura, in vivo
[25] = Toxicity in tadpole assessed as lethality at 0.625 ppm measured after 72 hrs; type: organism-based; details: anura, in vivo
[26] = Toxicity in tadpole assessed as lethality at 0.3125 ppm measured after 72 hrs; type: organism-based; details: anura, in vivo
[27] = Toxicity in tadpole assessed as lethality at 10 ppm measured after 96 hrs; type: organism-based; details: anura, in vivo
[28] = Toxicity in tadpole assessed as lethality at 5 ppm measured after 96 hrs; type: organism-based; details: anura, in vivo
[29] = Toxicity in tadpole assessed as lethality at 2.5 ppm measured after 96 hrs; type: organism-based; details: anura, in vivo
[30] = Toxicity in tadpole assessed as lethality at 1.25 ppm measured after 96 hrs; type: organism-based; details: anura, in vivo
[31] = Toxicity in tadpole assessed as lethality at 0.625 ppm measured after 96 hrs; type: organism-based; details: anura, in vivo
[32] = Toxicity in tadpole assessed as lethality at 0.3125 ppm measured after 96 hrs; type: organism-based; details: anura, in vivo
[33] = Toxicity in tadpole assessed as lethality at 10 ppm measured after 120 hrs; type: organism-based; details: anura, in vivo
[34] = Toxicity in tadpole assessed as lethality at 5 ppm measured after 120 hrs; type: organism-based; details: anura, in vivo
[35] = Toxicity in tadpole assessed as lethality at 2.5 ppm measured after 120 hrs; type: organism-based; details: anura, in vivo
[36] = Toxicity in tadpole assessed as lethality at 1.25 ppm measured after 120 hrs; type: organism-based; details: anura, in vivo
[37] = Toxicity in tadpole assessed as lethality at 0.625 ppm measured after 120 hrs; type: organism-based; details: anura, in vivo
[38] = Toxicity in tadpole assessed as lethality at 0.3125 ppm measured after 120 hrs; type: organism-based; details: anura, in vivo

Cc1ccc(-n2cnc3c(Cl)cc(Cl)cc3c2=O)cc1
LC90 [1]: 6.21 ppm
LC50 [1]: 4.71 µg/mL (≈ 15.4 µM)
LC90 [2]: 1.57 ppm
LC50 [2]: 1.19 µg/mL (≈ 3.9 µM)

Cc1ccc(-n2cnc3ccc(Cl)cc3c2=O)c(C)c1
LC90 [1]: 5.75 ppm
LC50 [1]: 4.36 µg/mL (≈ 15.3 µM)
LC90 [2]: 1.45 ppm
LC50 [2]: 1.1 µg/mL (≈ 3.86 µM)

O=c1c2cc(Cl)cc(Cl)c2ncn1-c1ccccc1
LC90 [1]: 8.71 ppm
LC50 [1]: 6.61 µg/mL (≈ 22.7 µM)
LC90 [2]: 2.19 ppm
LC50 [2]: 1.66 µg/mL (≈ 5.7 µM)

COc1ccc(-n2cnc3c(Cl)cc(Cl)cc3c2=O)cc1
LC90 [1]: 13.18 ppm
LC50 [1]: 10 µg/mL (≈ 31.1 µM)
LC90 [2]: 3.31 ppm
LC50 [2]: 2.51 µg/mL (≈ 7.82 µM)

Cc1ccc(-n2cnc3ccc([N+](=O)[O-])cc3c2=O)cc1
LC90 [1]: 7.58 ppm
LC50 [1]: 5.75 µg/mL (≈ 20.4 µM)
LC90 [2]: 1.91 ppm
LC50 [2]: 1.45 µg/mL (≈ 5.16 µM)

CCCn1cnc2ccc(Cl)cc2c1=O
LC90 [1]: >100 ppm
LC50 [1]: > 100 µg/mL
LC90 [2]: >50 ppm
LC50 [2]: > 50 µg/mL

COc1cc(-n2cnc3ccc([N+](=O)[O-])cc3c2=O)cc(OC)c1OC
LC90 [1]: 6.61 ppm
LC50 [1]: 5.01 µg/mL (≈ 14 µM)
LC90 [2]: 1.66 ppm
LC50 [2]: 1.26 µg/mL (≈ 3.53 µM)

Cc1ccc(-n2cnc3c(Cl)cc(Cl)cc3c2=O)c(C)c1
LC90 [1]: 7.08 ppm
LC50 [1]: 5.37 µg/mL (≈ 16.8 µM)
LC90 [2]: 1.78 ppm
LC50 [2]: 1.35 µg/mL (≈ 4.23 µM)

O=c1c2cc([N+](=O)[O-])ccc2ncn1-c1ccccc1
LC90 [1]: 9.33 ppm
LC50 [1]: 7.07 µg/mL (≈ 26.5 µM)
LC90 [2]: 2.34 ppm
LC50 [2]: 1.78 µg/mL (≈ 6.66 µM)

CN(C)c1ccc(-n2cnc3c(Cl)cc(Cl)cc3c2=O)cc1
LC90 [1]: 8.13 ppm
LC50 [1]: 6.17 µg/mL (≈ 18.5 µM)
LC90 [2]: 2.04 ppm
LC50 [2]: 1.55 µg/mL (≈ 4.64 µM)

COc1ccc(-n2cnc3c(Cl)cc(Cl)cc3c2=O)c(OC)c1
LC90 [1]: 8.62 ppm
LC50 [1]: 6.55 µg/mL (≈ 18.7 µM)
LC90 [2]: 2.15 ppm
LC50 [2]: 1.64 µg/mL (≈ 4.67 µM)

Cc1ccc(-n2cnc3ccc(Cl)cc3c2=O)cc1
LC90 [1]: 5.37 ppm
LC50 [1]: 4.07 µg/mL (≈ 15 µM)
LC90 [2]: 1.35 ppm
LC50 [2]: 1.02 µg/mL (≈ 3.77 µM)

COc1cc(-n2cnc3ccc(Cl)cc3c2=O)cc(OC)c1OC
LC90 [1]: 3.55 ppm
LC50 [1]: 2.69 µg/mL (≈ 7.76 µM)
LC90 [2]: 0.89 ppm
LC50 [2]: 0.68 µg/mL (≈ 1.96 µM)
mortality at 12 h, 10 ppm [3]: 0%
mortality at 12 h, 5 ppm [4]: 0%
mortality at 12 h, 2.5 ppm [5]: 0%
mortality at 12 h, 1.25 ppm [6]: 0%
mortality at 12 h, 0.625 ppm [7]: 0%
mortality at 12 h, 0.3125 ppm [8]: 0%
mortality at 24 h, 10 ppm [9]: 0%
mortality at 24 h, 5 ppm [10]: 0%
mortality at 24 h, 2.5 ppm [11]: 0%
mortality at 24 h, 1.25 ppm [12]: 0%
mortality at 24 h, 0.625 ppm [13]: 0%
mortality at 24 h, 0.3125 ppm [14]: 0%
mortality at 48 h, 10 ppm [15]: 10%
mortality at 48 h, 5 ppm [16]: 0%
mortality at 48 h, 2.5 ppm [17]: 0%
mortality at 48 h, 1.25 ppm [18]: 0%
mortality at 48 h, 0.625 ppm [19]: 0%
mortality at 48 h, 0.3125 ppm [20]: 0%
mortality at 72 h, 10 ppm [21]: 10%
mortality at 72 h, 5 ppm [22]: 0%
mortality at 72 h, 2.5 ppm [23]: 0%
mortality at 72 h, 1.25 ppm [24]: 0%
mortality at 72 h, 0.625 ppm [25]: 0%
mortality at 72 h, 0.3125 ppm [26]: 0%
mortality at 96 h, 10 ppm [27]: 20%
mortality at 96 h, 5 ppm [28]: 10%
mortality at 96 h, 2.5 ppm [29]: 0%
mortality at 96 h, 1.25 ppm [30]: 0%
mortality at 96 h, 0.625 ppm [31]: 0%
mortality at 96 h, 0.3125 ppm [32]: 0%
mortality at 120 h, 10 ppm [33]: 20%
mortality at 120 h, 5 ppm [34]: 10%
mortality at 120 h, 2.5 ppm [35]: 0%
mortality at 120 h, 1.25 ppm [36]: 0%
mortality at 120 h, 0.625 ppm [37]: 0%
mortality at 120 h, 0.3125 ppm [38]: 0%

COc1cc(-n2cnc3c(Cl)cc(Cl)cc3c2=O)cc(OC)c1OC
LC90 [1]: 12.95 ppm
LC50 [1]: 9.95 µg/mL (≈ 26.1 µM)
LC90 [2]: 3.28 ppm
LC50 [2]: 2.49 µg/mL (≈ 6.53 µM)

COc1ccc(-n2cnc3ccc(Cl)cc3c2=O)c(OC)c1
LC90 [1]: 4.97 ppm
LC50 [1]: 3.78 µg/mL (≈ 11.9 µM)
LC90 [2]: 1.19 ppm
LC50 [2]: 0.91 µg/mL (≈ 2.87 µM)

COc1cc([N+](=O)[O-])ccc1-n1cnc2c(Cl)cc(Cl)cc2c1=O
LC90 [1]: 7.03 ppm
LC50 [1]: 5.34 µg/mL (≈ 14.6 µM)
LC90 [2]: 1.72 ppm
LC50 [2]: 1.31 µg/mL (≈ 3.58 µM)

NCCO.O=C(Nc1ccc([N+](=O)[O-])cc1Cl)c1cc(Cl)ccc1O
LC90 [1]: <1 ppm
LC50 [1]: < 1 µg/mL
LC90 [2]: <0.1 ppm
LC50 [2]: < 0.1 µg/mL

O=c1c2cc(Cl)cc(Cl)c2ncn1-c1ccc([N+](=O)[O-])cc1
LC90 [1]: 6.11 ppm
LC50 [1]: 4.65 µg/mL (≈ 13.8 µM)
LC90 [2]: 1.52 ppm
LC50 [2]: 1.15 µg/mL (≈ 3.42 µM)

COc1ccc(-n2cnc3ccc(Cl)cc3c2=O)cc1
LC90 [1]: 5.01 ppm
LC50 [1]: 3.8 µg/mL (≈ 13.3 µM)
LC90 [2]: 1.23 ppm
LC50 [2]: 0.95 µg/mL (≈ 3.31 µM)

O=c1c2cc(Cl)ccc2ncn1-c1ccccc1
LC90 [1]: 6.16 ppm
LC50 [1]: 4.68 µg/mL (≈ 18.2 µM)
LC90 [2]: 1.55 ppm
LC50 [2]: 1.17 µg/mL (≈ 4.56 µM)

O=c1c2cc(Cl)ccc2ncn1C1CCCCC1
LC90 [1]: >100 ppm
LC50 [1]: > 100 µg/mL
LC90 [2]: >50 ppm
LC50 [2]: > 50 µg/mL
